{"source": "patent US11299467B2", "about": "(Antabio SAS, priority 2017, dated 2022)", "format_in_all_cases": "cell-based", "key": {"[1]": {"system": "NTBC186 (K. pneumonia strain expressing ACT-TYPE, VIM-1 and OXA-48)", "assay": "Meropenem MIC, broth micro-dilution, NTBC186", "details": "Klebsiella pneumoniae, read-out: MIC mero", "protocol": "(§1) Experiments were carried out using the ‘broth micro-dilution method’ according to the protocols M07-A8 established by the Clinical Laboratory Standards Institute (CLSI). Serial dilutions of meropenem (mero) were prepared in 96-well plates in cation-adjusted Mueller-Hinton broth (CAMHB); the concentration range was defined from 0.03 mg/L to 512 mg/L. The compounds (the compound of Example 2, above, and/or WCK4234) were added at the concentration indicated in the table below. A bacterial inoculum of each strain (clinical isolates) was adjusted to a 0.5 McFarland turbidity standard in physiologic serum (0.9% NaCl), then diluted 1:100 in CAMHB and added to each well to give a final bacterial cell number of 5×10^5 CFU/well. After incubation for 18-20 hours in a heating chamber at 37° C., the growth inhibition was evaluated by the absence of any bacterial development.\n(§2) NTBC019 (K. pneumonia strain expressing NDM-1, CTX-M-15 and OXA-181); NTBC185 (K. pneumonia strain expressing SHV-OSBL, TEM-OSBL, NDM-1 and OXA-48); NTBC186 (K. pneumonia strain expressing ACT-TYPE, VIM-1 and OXA-48); NTBC187 (K. pneumonia strain expressing SHV-OSBL, NDM-1 and OXA-48); and NTBC188 (K. pneumonia strain expressing NDM-1 and KPC-2)."}, "[2]": {"system": "NTBC099 (K. pneumonia strain expressing KPC-3, SHV-11 and TEM-1)", "assay": "Meropenem MIC, broth micro-dilution, NTBC099", "details": "Klebsiella pneumoniae, read-out: MIC mero", "protocol": "as §1\n(§3) NTBC091-1 (E. coli strain expressing KPC-2 and TEM-1); NTBC093 (E. cloacae strain expressing KPC-2 and TEM-1); NTBC096-1 (K. pneumonia strain expressing OXA-181 and SHV-11); NTBC099 (K. pneumonia strain expressing KPC-3, SHV-11 and TEM-1); and NTBC189 (K. pneumonia strain expressing TEM-OSBL, CTX-M-14 and OXA-48)."}, "[3]": {"system": "NTBC062 (K. pneumoniae strain expressing IMP-1 and TEM-1)", "assay": "Meropenem MIC, broth micro-dilution, NTBC062", "details": "Klebsiella pneumoniae, read-out: MIC mero", "protocol": "as §1, with “The experiments were” for “Experiments were”, “of the β-lactam antibiotic (Meropenem)” for “of meropenem (mero)”, “compounds” for “compounds (the compound of Example 2, above, and/or WCK4234)”, “at a constant” for “at the”, “concentration of 8 μg/mL.” for “concentration indicated in the table below.”\n(§4) Compounds of the invention were tested at a constant concentration of 8 μg/mL. […]\n(§5) Experiments were carried out using the ‘broth micro-dilution method’ according to the protocols M07-A8 established by the Clinical Laboratory Standards Institute (CLSI). […] After incubation for 18-20 hours in a heating chamber at 37° C., the growth inhibition was evaluated by the absence of any bacterial development. […]"}, "[4]": {"system": "NTBC035-2 (K. pneumoniae strain expressing NDM-1, CMY-4 and SHV-11)", "assay": "Meropenem MIC, broth micro-dilution, NTBC035-2", "details": "Klebsiella pneumoniae, read-out: MIC mero", "protocol": "as §1, with “The experiments were” for “Experiments were”, “of the β-lactam antibiotic (Meropenem)” for “of meropenem (mero)”, “compounds” for “compounds (the compound of Example 2, above, and/or WCK4234)”, “at a constant” for “at the”, “concentration of 8 μg/mL.” for “concentration indicated in the table below.”\nas §4, §5"}, "[5]": {"system": "NTBC020 (E. coli strain expressing NDM-1, TEM-1 and CTX-M-15)", "assay": "Meropenem MIC, broth micro-dilution, NTBC020", "details": "Escherichia coli, read-out: MIC mero", "protocol": "as §1, with “The experiments were” for “Experiments were”, “of the β-lactam antibiotic (Meropenem)” for “of meropenem (mero)”, “compounds” for “compounds (the compound of Example 2, above, and/or WCK4234)”, “at a constant” for “at the”, “concentration of 8 μg/mL.” for “concentration indicated in the table below.”\nas §4, §5"}, "[6]": {"system": "NTBC096-1 (K. pneumonia strain expressing OXA-181 and SHV-11)", "assay": "Meropenem MIC, broth micro-dilution, NTBC096-1", "details": "Klebsiella pneumoniae, read-out: MIC mero", "protocol": "as §1, §3"}, "[7]": {"system": "NTBC188 (K. pneumonia strain expressing NDM-1 and KPC-2)", "assay": "Meropenem MIC, broth micro-dilution, NTBC188", "details": "Klebsiella pneumoniae", "protocol": "as §1, §2\n(§6) Experiments were conducted as described above. Compounds (the compounds of Examples 2 and 26) were tested at 8 μg/mL. […] MIC values were determined for […]"}, "[8]": {"system": "NTBC093 (E. cloacae strain expressing KPC-2 and TEM-1)", "assay": "Meropenem MIC, broth micro-dilution, NTBC093", "details": "Enterobacter cloacae, read-out: MIC mero", "protocol": "as §1, §3"}, "[9]": {"system": "NTBC123 (K. pneumoniae strain expressing NDM-1)", "assay": "Meropenem MIC, broth micro-dilution, NTBC123", "details": "Klebsiella pneumoniae, read-out: MIC mero", "protocol": "as §1, with “The experiments were” for “Experiments were”, “of the β-lactam antibiotic (Meropenem)” for “of meropenem (mero)”, “compounds” for “compounds (the compound of Example 2, above, and/or WCK4234)”, “at a constant” for “at the”, “concentration of 8 μg/mL.” for “concentration indicated in the table below.”\nas §4, §5"}, "[10]": {"system": "NTBC024 (K. pneumoniae strain expressing VIM-19, TEM-1 and CTX-M-3)", "assay": "Meropenem MIC, broth micro-dilution, NTBC024", "details": "Klebsiella pneumoniae, read-out: MIC mero", "protocol": "as §1, with “The experiments were” for “Experiments were”, “of the β-lactam antibiotic (Meropenem)” for “of meropenem (mero)”, “compounds” for “compounds (the compound of Example 2, above, and/or WCK4234)”, “at a constant” for “at the”, “concentration of 8 μg/mL.” for “concentration indicated in the table below.”\nas §4, §5"}, "[11]": {"system": "NTBC187 (K. pneumonia strain expressing SHV-OSBL, NDM-1 and OXA-48)", "assay": "Meropenem MIC, broth micro-dilution, NTBC187", "details": "Klebsiella pneumoniae, read-out: MIC mero", "protocol": "as §1, §2"}, "[12]": {"system": "NTBC019 (K. pneumonia strain expressing NDM-1, CTX-M-15 and OXA-181)", "assay": "Meropenem MIC, broth micro-dilution, NTBC019", "details": "Klebsiella pneumoniae", "protocol": "as §1, §2, §6"}, "[13]": {"system": "NTBC042 (E. coli strain expressing VIM-1, TEM-1, CTX-M-15, SHV-12)", "assay": "Meropenem MIC, broth micro-dilution, NTBC042", "details": "Escherichia coli, read-out: MIC mero", "protocol": "as §1, with “The experiments were” for “Experiments were”, “of the β-lactam antibiotic (Meropenem)” for “of meropenem (mero)”, “compounds” for “compounds (the compound of Example 2, above, and/or WCK4234)”, “at a constant” for “at the”, “concentration of 8 μg/mL.” for “concentration indicated in the table below.”\nas §4, §5"}}, "note": "Like-named read-outs stand apart in the source and are kept apart here.", "data": [{"compound": "C[C@@H](O)[C@H]1C(=O)N2C(C(=O)O)=C(S[C@@H]3CN[C@H](C(=O)N(C)C)C3)[C@H](C)[C@H]12", "note": "[Meropenem]", "values": [{"measurement": "MIC", "setting": "[1]", "result": 16, "unit": "µg/mL"}, {"measurement": "MIC", "setting": "[2]", "result": 128, "unit": "µg/mL"}, {"measurement": "MIC", "setting": "[3]", "result": 4, "unit": "µg/mL"}, {"measurement": "MIC", "setting": "[4]", "result": 64, "unit": "µg/mL"}, {"measurement": "MIC", "setting": "[5]", "result": 128, "unit": "µg/mL"}, {"measurement": "MIC", "setting": "[6]", "result": 16, "unit": "µg/mL"}, {"measurement": "MIC", "setting": "[7]; read-out: MIC mero", "result": 32, "unit": "µg/mL"}, {"measurement": "MIC", "setting": "[7]; read-out: MIC, NTBC188", "result": "8 to 512", "unit": "µg/mL"}, {"measurement": "MIC", "setting": "[8]", "result": 128, "unit": "µg/mL"}, {"measurement": "MIC", "setting": "[9]", "result": 128, "unit": "µg/mL"}, {"measurement": "MIC", "setting": "[10]", "result": 16, "unit": "µg/mL"}, {"measurement": "MIC", "setting": "[11]", "result": 128, "unit": "µg/mL"}, {"measurement": "MIC", "setting": "[12]; read-out: MIC mero", "result": 64, "unit": "µg/mL"}, {"measurement": "MIC", "setting": "[12]; read-out: MIC, NTBC19", "result": "8 to 512", "unit": "µg/mL"}, {"measurement": "MIC", "setting": "[13]", "result": 8, "unit": "µg/mL"}]}]}
